Test results reported in ChEMBL document CHEMBL2046291, “Potent inhibition of norovirus 3CL protease by peptidyl α-ketoamides and α-ketoheterocycles” (Bioorg Med Chem Lett, 2012).

Tests used:
Norovirus = assay: Antiviral activity against Norovirus infected in human HG23 cells; type: functional; details: read-out: ED50 (the source's name)
[1] = Inhibition of Norovirus recombinant 3CL protease using Edans-EPDFHLQGPEDLAK-Dabcyl as substrate for 30 mins by fluorometry

Compound | EC50 (Norovirus) [µM] | IC50 [1] [µM]
CC(C)C[C@H](NC(=O)OCc1ccccc1)C(=O)N[C@@H](CC1CCNC1=O)C(=O)c1nccs1 (stereo not given in full) | 4.2 | 8.8
CC(C)NC(=O)C(O)[C@H](CC1CCNC1=O)NC(=O)[C@H](Cc1ccccc1)NC(=O)OCc1ccccc1 (stereo not given in full) | 6.3 | 23.1
CC(C)C[C@H](NC(=O)OCc1ccccc1)C(=O)N[C@@H](CC1CCNC1=O)C(O)C(=O)NC1CCCCC1 (stereo not given in full) | > 20 | > 50
CC(C)C[C@H](NC(=O)OCc1ccccc1)C(=O)N[C@@H](CC1CCNC1=O)C(O)C(=O)NC1CC1 (stereo not given in full) | > 10 | > 50
CC(C)C[C@H](NC(=O)OCc1ccccc1)C(=O)N[C@@H](CC1CCNC1=O)C(O)C(=O)NC(C)(C)C (stereo not given in full) | > 20 | > 50
CC(C)C[C@H](NC(=O)OCc1ccccc1)C(=O)N[C@@H](CC1CCNC1=O)C(O)C(=O)NCc1ccccc1 (stereo not given in full) | > 20 | > 50
CC(C)C[C@H](NC(=O)OCc1ccccc1)C(=O)N[C@@H](CC1CCNC1=O)C(O)c1nccs1 (stereo not given in full) | 4.3 | 12.3
CCOC(=O)CNC(=O)C(O)[C@H](CC1CCNC1=O)NC(=O)[C@H](CC(C)C)NC(=O)OCc1ccccc1 (stereo not given in full) | > 10 | > 50
CC(C)C[C@H](NC(=O)OCc1ccccc1)C(=O)N[C@@H](CC1CCNC1=O)C(O)c1ncco1 (stereo not given in full) | > 20 | > 50
CCCCNC(=O)C(O)[C@H](CC1CCNC1=O)NC(=O)[C@H](CC(C)C)NC(=O)OCc1ccccc1 (stereo not given in full) | > 20 | > 50
CC(C)NC(=O)C(=O)[C@H](CC1CCNC1=O)NC(=O)[C@H](Cc1ccccc1)NC(=O)OCc1ccccc1 (stereo not given in full) | 4.2 | 21.5

The remaining lines, values ahead:

EC50 (Norovirus) [µM] | IC50 [1] [µM] | Compound
0.8 | 2.1 | CCOC(=O)CNC(=O)C(=O)[C@H](CC1CCNC1=O)NC(=O)[C@H](CC(C)C)NC(=O)OCc1ccccc1 (stereo not given in full)
4.1 | 45.3 | CC(C)C[C@H](NC(=O)OCc1ccccc1)C(=O)N[C@@H](CC1CCNC1=O)C(O)C(=O)NC(C)C (stereo not given in full)
0.9 | 2.3 | CC(C)C[C@H](NC(=O)OCc1ccccc1)C(=O)N[C@@H](CC1CCNC1=O)C(=O)c1ncco1 (stereo not given in full)
1.2 | 3.5 | CC(C)C[C@H](NC(=O)OCc1ccccc1)C(=O)N[C@@H](CC1CCNC1=O)C(=O)C(=O)NC1CCCCC1 (stereo not given in full)
1.8 | 7.1 | CC(C)C[C@H](NC(=O)OCc1ccccc1)C(=O)N[C@@H](CC1CCNC1=O)C(=O)C(=O)NCc1ccccc1 (stereo not given in full)
1.1 | 2.8 | CC(C)C[C@H](NC(=O)OCc1ccccc1)C(=O)N[C@@H](CC1CCNC1=O)C(=O)C(=O)NC(C)(C)C (stereo not given in full)
1.3 | 4.1 | CCCCNC(=O)C(=O)[C@H](CC1CCNC1=O)NC(=O)[C@H](CC(C)C)NC(=O)OCc1ccccc1 (stereo not given in full)
2.8 | 5.3 | CC(C)C[C@H](NC(=O)OCc1ccccc1)C(=O)N[C@@H](CC1CCNC1=O)C(=O)C(=O)NC(C)C (stereo not given in full)
1.1 | 3.4 | CC(C)C[C@H](NC(=O)OCc1ccccc1)C(=O)N[C@@H](CC1CCNC1=O)C(=O)C(=O)NC1CC1 (stereo not given in full)
